Converted amounts (≈) assume the structure as drawn. Where two headings read alike, the source gives them in different places.
How the values were obtained:
hTRPV3 [1] = target: T1, hTRPV3 (Homo sapiens (Human), UniProt Q8NET8); assay: Semi-auto patch clamp recording in nHEK cells (WT or TRPV3-mu transfected); type: cell-based
Experimental: Compounds were tested at room temperature using the whole-cell patch clamp technique with a HEKA EPC 10 usb patch-clamp amplifier (HEKA Elektronik, Germany). Output signals from the amplifier were digitized and recorded with PatchMaster (v2x90.5 HEKA Elektronik, Germany). For quality control, the minimum seal resistance was set at 100 MΩ, and the outward current was stabilized with at least 1 nA of rectifying current at +80 mV while the inward current was stabilized with at least 300 pA of rectifying current at −80 mV.
NPC-1 Chips (Nanion, Germany) were used to trap a single cell. For both WT or transfected cells, chips of the categories 2-3 MOhm and 3-5 MOhm were used. Chips are disposable and each recording required a new chip. 5 μl of internal solution was applied in the inner pore of the chip, then it was screwed on top of the inner electrode. The upper unit of the patch lamp device was assembled over the chip, and 15 μl external buffer were added between the chip pore and the external electrode.
Basal nHEK cells at Passage 2 or 3 and at the density of 70-90% confluency were used for patch clamp or transfection. For patch-clamp, cells were suspended in TrypLE enzyme for 5 min in 37° C., and then harvested using KBM-Gold media. Cells were then centrifuged for 5 min at 110 g RT. Supernatant was then removed, and cells were re-suspended in the KBM-Gold media and maintained at RT until patch-clamp. After patch clamp system was initialized, and once cell was capture on the chip, media was washed together with free cells, and replaced by external buffer. For TRPV3-mu transfected cells, cells were maintained in KBM-Gold media containing 3 uM of the tested antagonist.
nHEK cells were transfected according to SOP KP-Lab-001.For patch clamp, cells were seeded in 12 well plate and harvested 24 hours after transfection according to the SOP section 2.8.2 “Cell preparation for patch clamp”.
For WT nHEK cells, the “intermediate protocol” in the semi-automatic Port-a-Patch device software was selected based on the parameters: initial sealing, measured by resistance, and its ability to maintain sealing along with assay.
The procedure was started with the “Startup procedure” protocol that validates chip contact and adjusts offset, then after the system was ready, 5 μl of cells suspended in extracellular buffer was added and the intermediate protocol was automatically launched.
When a cell was trapped by vacuum, the value “v-membrane” was raised by 100%, then 15 μl of sealing solution was added. The procedure continued automatically through all its steps until the final step “maintain the whole-cell”. At this step, the sealing solution was washed using three 20 μl washes with an external buffer, and the values C-fast and C-slow were adjusted twice using the “Auto E” buttons.
The sensitivity of reading was adjusted by changing the gain from 2.0 to 0.5.
To initiate recording, the “Ramp” protocol was initiated, and currents were recorded for several minutes until the signal remained stable for both inward and outward currents.
For TRPV3-mu transfected nHEK cells, a similar procedure was used, but with “Fragile protocol”, and the addition of the antagonist at the step of sealing.
Nanion's system automatically maintained cells in the holding potential of −40 mV. Then the voltage was ramped from […] for 160 ms. Finally, the voltage was stepped back to the holding potential (−40 mV). This voltage command protocol was repeated in cycles of 400 ms (FIG. 1).
The solution was then gently mixed and current recording resumed.
Within each cellular recording, the percent of control values were calculated for each test compound concentration-current response based on peak current in the presence of the agonist and full response.
Target sequence in this assay (Q8NET8 whole entry, looked up): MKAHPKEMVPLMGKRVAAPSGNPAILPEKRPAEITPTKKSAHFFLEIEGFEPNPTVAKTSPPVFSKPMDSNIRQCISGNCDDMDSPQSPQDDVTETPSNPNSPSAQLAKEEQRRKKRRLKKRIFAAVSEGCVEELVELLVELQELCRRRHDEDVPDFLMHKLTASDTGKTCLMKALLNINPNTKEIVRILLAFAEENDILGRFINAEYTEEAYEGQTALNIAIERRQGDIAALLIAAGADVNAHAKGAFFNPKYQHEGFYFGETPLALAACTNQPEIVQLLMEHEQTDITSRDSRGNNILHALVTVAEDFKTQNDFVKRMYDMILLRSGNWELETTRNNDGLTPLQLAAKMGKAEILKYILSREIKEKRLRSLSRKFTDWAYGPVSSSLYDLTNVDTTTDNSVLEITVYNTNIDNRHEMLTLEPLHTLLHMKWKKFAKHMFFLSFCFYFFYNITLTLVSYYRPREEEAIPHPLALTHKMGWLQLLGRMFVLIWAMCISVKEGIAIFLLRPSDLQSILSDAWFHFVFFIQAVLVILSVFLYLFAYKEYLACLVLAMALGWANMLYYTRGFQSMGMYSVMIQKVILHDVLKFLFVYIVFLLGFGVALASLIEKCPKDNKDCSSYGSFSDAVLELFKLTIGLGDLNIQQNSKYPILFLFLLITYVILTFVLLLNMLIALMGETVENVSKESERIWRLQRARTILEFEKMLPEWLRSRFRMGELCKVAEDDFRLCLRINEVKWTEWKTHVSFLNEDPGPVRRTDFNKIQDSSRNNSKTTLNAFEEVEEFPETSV

human hERG channels = human hERG channels (Homo sapiens (Human), UniProt Q12809); assay: hERG assay (patch clamp, CHO cells); type: cell-based
Sequence of human hERG channels (Q12809 whole entry): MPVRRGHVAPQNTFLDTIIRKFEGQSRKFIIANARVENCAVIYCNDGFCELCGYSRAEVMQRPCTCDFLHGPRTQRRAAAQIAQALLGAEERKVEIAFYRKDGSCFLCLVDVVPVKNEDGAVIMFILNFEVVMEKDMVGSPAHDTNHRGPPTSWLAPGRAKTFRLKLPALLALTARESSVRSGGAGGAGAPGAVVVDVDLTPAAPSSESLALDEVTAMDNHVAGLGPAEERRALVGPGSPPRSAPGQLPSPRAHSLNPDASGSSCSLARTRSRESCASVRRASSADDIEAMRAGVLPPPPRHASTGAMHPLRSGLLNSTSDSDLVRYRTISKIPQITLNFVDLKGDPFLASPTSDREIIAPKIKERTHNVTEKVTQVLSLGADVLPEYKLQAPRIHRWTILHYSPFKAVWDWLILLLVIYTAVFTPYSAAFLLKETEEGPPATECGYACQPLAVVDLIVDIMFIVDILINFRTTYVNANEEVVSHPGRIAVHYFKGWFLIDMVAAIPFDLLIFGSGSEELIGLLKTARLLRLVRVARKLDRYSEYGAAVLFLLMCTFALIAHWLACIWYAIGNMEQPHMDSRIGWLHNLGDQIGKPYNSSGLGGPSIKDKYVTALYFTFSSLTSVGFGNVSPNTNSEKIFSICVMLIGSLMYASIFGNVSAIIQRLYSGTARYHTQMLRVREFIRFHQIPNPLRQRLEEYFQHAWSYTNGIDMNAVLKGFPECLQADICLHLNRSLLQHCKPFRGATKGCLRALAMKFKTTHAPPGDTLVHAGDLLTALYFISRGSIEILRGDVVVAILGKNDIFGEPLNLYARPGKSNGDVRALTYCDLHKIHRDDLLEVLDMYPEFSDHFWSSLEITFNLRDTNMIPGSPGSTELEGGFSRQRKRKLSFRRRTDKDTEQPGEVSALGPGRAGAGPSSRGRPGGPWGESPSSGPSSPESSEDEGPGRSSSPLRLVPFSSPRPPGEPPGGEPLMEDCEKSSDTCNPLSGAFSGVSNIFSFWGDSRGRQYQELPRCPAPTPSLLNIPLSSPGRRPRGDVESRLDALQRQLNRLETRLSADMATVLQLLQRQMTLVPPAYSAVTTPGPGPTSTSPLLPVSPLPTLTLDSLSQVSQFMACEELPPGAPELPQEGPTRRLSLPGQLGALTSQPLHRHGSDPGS
Experimental: hERG assay: Briefly, cells from a stable CHO cell line expressing human hERG channels were plated onto glass coverslips and used in patch clamp assays on the same day. After seal formation and break-in to whole-cell configuration, voltage steps were applied as follows: from the holding potential of −90 mV, a 2 second long step to +40 mV was applied, followed by a 1.5 second step to −50 mV. These steps were applied once every 5 seconds. The hERG current was measured at the peak of the outward tail current at −50 mV. The pipette solution was potassium aspartate based and the external solution was normal Ringer's.
All currents were recorded in whole-cell configuration using an Axopatch 200B controlled by pClamp 10 software (Molecular Devices). In each cell, when the current stabilized, the compound was perfused locally onto the cell. Two to three concentrations of the test compound were applied to each cell. At the end of compound testing, 10 μM verapamil was applied to completely block hERG currents and assess leak current.
Data were analyzed by computing the degree of current block after compound addition compared with the unblocked current amplitude. The unblocked current was predicted from the interpolation between the current amplitude prior to compound addition and after compound washout. The resulting percent block at each concentration was used to make a concentration-response plot and fitted to the Hill equation: percent block=minimum block+(maximum block-minimum block)/(1+10^(Hill slope*(log IC50−concentration))).

hTRPV3 [2] = target: T1, hTRPV3; assay: Whole-cell patch clamp, hTRPV3 Phase 1 / Phase 2 currents; type: cell-based; details: Phase 1 current
Procedure, shortened: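 Whole-cell recordings on induced TRPV3 cells replated on coverslips, held at −40 mV with 400 ms ramps from −120 to +100 mV every 5 s; currents read at −80 and +80 mV. Ringer's external solution; current activated by heating to ≥28 °C or 20 μM 2-APB.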
Target sequence in this assay (Q8NET8 whole entry): as the sequence (Q8NET8 whole entry, looked up) above

[3] = Metabolic Stability assay, rat liver microsomes; type: in vitro ADME; details: read-out: LM T1/2 (min) rat
Procedure, shortened: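 Test article at 1 μM starting concentration incubated with human or rat liver microsomes at 37 °C, with the reaction started by NADPH regeneration components. Aliquots were quenched in cold acetonitrile/MeOH/H2O at 0, 7, 15, 30 and 60 min and analysed by HPLC/MS/MS.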

[4] = Aqueous solubility assay in Normal Ringer Solution; details: Normal Ringer Solution, saline or isotonic, kinetic from dmso stock
Experimental: Following vortex and incubation for a sufficient time (e.g. 40 minutes at room temperature), solutions were filtered, quenched with acetonitrile, and analyzed by Liquid Chromotography. Solubility Limits were determined by comparison to a standard curve.

[5] = human TRPV3, read-out: hTRPV3 (nM) Phase 1
[6] = inward, whole-cell patch clamp, read-out: hTRPV3 Patch P1 Inwd

Row | Compound | IC50 (hTRPV3 [1]) | also measured
1 | CC(C)c1ccccc1-c1ccc([C@H]2CCN(C(=O)c3ccc(F)cn3)C2)c(CO)c1 (stereo in doubt) [KM-002-E1, (5-Fluoro-pyridin-2-yl)-[3-(3-hydroxymethyl-2′-isopropyl-biphenyl-4-yl)-pyrrolidin-1-yl]-methanone] | < 10 nM | 
2 | Cc1nc(C(=O)N2CC[C@H](c3ccc(-c4ccccc4C4CC4)cc3CO)C2)ccc1O (stereo in doubt) [KM-023-E1, [3-(2′-Cyclopropyl-3-hydroxymethyl-biphenyl-4-yl)-pyrrolidin-1-yl]-(5-hydroxy-6-methyl-pyridin-2-yl)-methanone] | < 10 nM | 
3 | COc1cncc(C(=O)N2CC[C@H](c3ccc(-c4ccccc4C4CC4)cc3CO)C2)n1 (stereo in doubt) [KM-031-E1, [3-(2′-Cyclopropyl-3-hydroxymethyl-biphenyl-4-yl)-pyrrolidin-1-yl]-(6-methoxy-pyrazin-2-yl)-methanone] | 10 to 100 nM | 
4 | Cc1cncc(C(=O)N2CC[C@H](c3ccc(-c4ccccc4C4CC4)cc3CO)C2)n1 (stereo in doubt) [KM-032-E1, [3-(2′-Cyclopropyl-3-hydroxymethyl-biphenyl-4-yl)-pyrrolidin-1-yl]-(6-methyl-pyrazin-2-yl)-methanone] | 10 to 100 nM | 
5 | COCc1cccc(C(=O)N2CC[C@H](c3ccc(-c4ccccc4C4CC4)cc3CO)C2)n1 (stereo in doubt) [KM-036-E1, [3-(2′-Cyclopropyl-3-hydroxymethyl-biphenyl-4-yl)-pyrrolidin-1-yl]-(6-methoxymethyl-pyridin-2-yl)-methanone] | 10 to 100 nM | 
6 | CNc1cncc(C(=O)N2CC[C@H](c3ccc(-c4ccccc4C4CC4)cc3CO)C2)n1 (stereo in doubt) [KM-054-E1, [3-(2′-Cyclopropyl-3-hydroxymethyl-biphenyl-4-yl)-pyrrolidin-1-yl]-(6-methylamino-pyrazin-2-yl)-methanone] | < 10 nM | 
7 | CC(C)c1ccccc1Oc1ccc(C2CC(=O)N(Cc3ccccn3)C2)c(CO)c1 (stereo not drawn) [Compound 2-93, 4-(2-(hydroxymethyl)-4-(2-isopropylphenoxy)phenyl)-1-(pyridin-2-ylmethyl)pyrrolidin-2-one] |  | IC50 (human hERG channels): ~5.97e-06 M; IC50 (human hERG channels; (M), read-out: hERG): ~1.08e-05 M; IC50 (hTRPV3 [2]; [5]): 205 nM; IC50 (hTRPV3 [2]; [6]): 100 to 1000 nM; half-life at 1 μM [3]: 5.05 min; solubility at 40 min [4]: ~4.2 µM (≈ 1.75 µg/mL)
8 | O=C(c1cnccn1)N1CCC(c2ccc(-c3ccccc3C3CC3)cc2CO)C1 (stereo not drawn) [Compound 2-105, (3-(2′-cyclopropyl-3-(hydroxymethyl)biphenyl-4-yl)pyrrolidin-1-yl)(pyrazin-2-yl)methanone] |  | IC50 (human hERG channels; (PL), read-out: hERG (nM) (PL)): 1.17e-05 M; IC50 (hTRPV3 [2]; [5]): 61.2 nM; IC50 (hTRPV3 [2]; [6]): 10 to 100 nM; half-life at 1 μM [3]: 12.9 min; solubility at 40 min [4]: > 21 µM
9 | CC(C)c1ccccc1-c1ccc([C@@H]2CCN(C(=O)c3ccc(F)cn3)C2)c(CO)c1 [KM-002-E2] | 10 to 100 nM | 
10 | COCc1cccc(C(=O)N2CCC(c3ccc(-c4ccccc4C4CC4)cc3CO)C2)n1 (stereo not drawn) [KM-036] | 10 to 100 nM | 
11 | CNc1cncc(C(=O)N2CCC(c3ccc(-c4ccccc4C(C)C)cc3CO)C2)n1 (stereo not drawn) [KM-069, [3-(3-Hydroxymethyl-2′-isopropyl-biphenyl-4-yl)-pyrrolidin-1-yl]-(6-methylamino-pyrazin-2-yl)-methanone] | 10 to 100 nM | 
12 | COCc1cncc(C(=O)N2CCC(c3ccc(-c4ccccc4C4CC4)cc3CO)C2)n1 (stereo not drawn) [KM-070, [3-(2′-Cyclopropyl-3-hydroxymethyl-biphenyl-4-yl)-pyrrolidin-1-yl]-(6-methoxymethyl-pyrazin-2-yl)-methanone] | 10 to 100 nM | 
13 | COc1cncc(C(=O)N2CCC(c3ccc(-c4cccc5c4CCC5)cc3CO)C2)n1 (stereo not drawn) [KM-071, [3-(2-Hydroxymethyl-4-indan-4-yl-phenyl)-pyrrolidin-1-yl]-(6-methoxy-pyrazin-2-yl)-methanone] | 10 to 100 nM | 
14 | Cc1nc(C(=O)N2CCC(c3ccc(-c4ccc(F)cc4C4CC4)cc3CO)C2)ccc1O (stereo not drawn) [KM-084] | 10 to 100 nM | 
15 | Cc1nc(C(=O)N2CCC(c3ccc(-c4cc(F)ccc4C4CC4)cc3CO)C2)ccc1O (stereo not drawn) [KM-085] | < 10 nM | 
